In ChEMBL document CHEMBL6103575, “Design, synthesis and evaluation of (E)-1-(4-(2-(1H-pyrazol-5-yl)vinyl)phenyl) derivatives as next generation selective RET inhibitors overcoming RET solvent front mutations (G810C/R)” (Eur J Med Chem, 2025):

Experiments:
[1] = Induction of apoptosis in mouse BaF3 cells harboring CCDC6-RET assessed as late apoptotic cells at 300 nM incubated for 48 hrs by Annexin V-PE staining based flow cytometry analysis (Rvb =2.44%); type: functional
BaF3 = assay: Antiproliferative activity against mouse BaF3 cells harbouring CCDC6-RET G810C mutant assessed as inhibition of cell proliferation incubated for 72 hrs by CCK-8 assay; type: functional, cell-based; settings: BaF3, 72 h
[2] = Induction of apoptosis in mouse BaF3 cells harboring CCDC6-RET G810C mutant assessed as necrotic cells at 30 nM incubated for 48 hrs by Annexin V-PE staining based flow cytometry analysis (Rvb =0.48%); type: functional
[3] = biological target: T1, Ephrin type-B receptor 4 (Homo sapiens) (UniProt P54760); assay: Inhibition of EPHB4 (unknown origin) at 1 uM relative to control
T1 sequence (whole entry): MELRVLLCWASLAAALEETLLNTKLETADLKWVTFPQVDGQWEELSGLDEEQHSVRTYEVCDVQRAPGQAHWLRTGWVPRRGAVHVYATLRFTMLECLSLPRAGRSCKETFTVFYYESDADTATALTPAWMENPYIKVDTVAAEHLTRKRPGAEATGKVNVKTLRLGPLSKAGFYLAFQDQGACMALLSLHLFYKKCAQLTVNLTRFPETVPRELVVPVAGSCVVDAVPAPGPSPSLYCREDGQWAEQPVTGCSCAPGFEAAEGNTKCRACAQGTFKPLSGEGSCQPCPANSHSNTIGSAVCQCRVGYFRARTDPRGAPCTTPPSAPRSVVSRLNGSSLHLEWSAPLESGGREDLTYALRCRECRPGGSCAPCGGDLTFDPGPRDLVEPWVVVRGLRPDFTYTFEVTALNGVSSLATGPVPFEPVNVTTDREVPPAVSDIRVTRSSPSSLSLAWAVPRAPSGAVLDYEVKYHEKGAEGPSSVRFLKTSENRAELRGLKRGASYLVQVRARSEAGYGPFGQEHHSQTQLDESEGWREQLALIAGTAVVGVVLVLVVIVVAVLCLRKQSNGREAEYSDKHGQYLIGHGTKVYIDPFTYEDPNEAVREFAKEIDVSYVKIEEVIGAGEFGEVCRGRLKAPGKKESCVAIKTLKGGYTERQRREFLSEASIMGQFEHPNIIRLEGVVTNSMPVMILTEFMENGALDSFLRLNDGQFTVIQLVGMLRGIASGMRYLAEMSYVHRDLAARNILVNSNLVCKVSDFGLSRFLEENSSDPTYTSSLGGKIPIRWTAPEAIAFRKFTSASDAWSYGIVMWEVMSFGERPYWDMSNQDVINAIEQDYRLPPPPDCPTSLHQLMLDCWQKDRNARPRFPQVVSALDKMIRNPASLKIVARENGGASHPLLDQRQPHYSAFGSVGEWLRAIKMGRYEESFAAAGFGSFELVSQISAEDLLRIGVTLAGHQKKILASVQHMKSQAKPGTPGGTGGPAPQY

[4] = Induction of cell cycle arrest in mouse BaF3 cells harboring CCDC6-RET G810C mutant assessed as accumulation of cells at S phase at 10 nM incubated for 24 hrs by propidium iodide staining based analysis (reference value: 12.47%); type: functional
[5] = Induction of apoptosis in mouse BaF3 cells harboring CCDC6-RET G810R mutant assessed as late apoptotic cells at 10 nM incubated for 48 hrs by Annexin V-PE staining based flow cytometry analysis (Rvb =3.21%); type: functional
Ephrin type-A receptor 2 = Ephrin type-A receptor 2 (Homo sapiens, UniProt P29317); assay: Inhibition of EPHA2 (unknown origin)
[6] = tested on: Proto-oncogene tyrosine-protein kinase receptor Ret (Homo sapiens), P07949 [G810R]; assay: Inhibition of RET (unknown origin) G810R mutant at 1 uM relative to control
[7] = Induction of apoptosis in mouse BaF3 cells harboring CCDC6-RET G810R mutant assessed as viable cells at 30 nM incubated for 48 hrs by Annexin V-PE staining based flow cytometry analysis (Rvb =86.40%); type: functional; settings: read-out: Activity
[8] = Induction of apoptosis in mouse BaF3 cells harboring CCDC6-RET assessed as late apoptotic cells at 10 nM incubated for 48 hrs by Annexin V-PE staining based flow cytometry analysis (Rvb =2.44%); type: functional
[9] = Induction of cell cycle arrest in mouse BaF3 cells harboring CCDC6-RET G810C mutant assessed as accumulation of cells at G2/M phase at 300 nM incubated for 24 hrs by propidium iodide staining based analysis (reference value: 34.75%); type: functional
[10] = Induction of apoptosis in mouse BaF3 cells harboring CCDC6-RET G810C mutant assessed as viable cells at 300 nM incubated for 48 hrs by Annexin V-PE staining based flow cytometry analysis (Rvb =86.47%); type: functional; settings: read-out: Activity
[11] = Induction of apoptosis in mouse BaF3 cells harboring CCDC6-RET G810R mutant assessed as necrotic cells at 300 nM incubated for 48 hrs by Annexin V-PE staining based flow cytometry analysis (Rvb =0.30%); type: functional
[12] = biological target: Proto-oncogene tyrosine-protein kinase receptor Ret (Homo sapiens, UniProt P07949, G810C); assay: Inhibition of RET (unknown origin) G810C mutant
[13] = Induction of apoptosis in mouse BaF3 cells harboring CCDC6-RET G810C mutant assessed as viable cells at 30 nM incubated for 48 hrs by Annexin V-PE staining based flow cytometry analysis (Rvb =86.47%); type: functional; settings: read-out: Activity
[14] = biological target: Platelet-derived growth factor receptor alpha (Homo sapiens, UniProt P16234); assay: Inhibition of PDGFRalpha (unknown origin)
[15] = Induction of cell cycle arrest in mouse BaF3 cells harboring CCDC6-RET assessed as accumulation of cells at G2/M phase at 30 nM incubated for 24 hrs by propidium iodide staining based analysis (reference value: 34.11%); type: functional
[16] = Induction of apoptosis in mouse BaF3 cells harboring CCDC6-RET G810C mutant assessed as late apoptotic cells at 30 nM incubated for 48 hrs by Annexin V-PE staining based flow cytometry analysis (Rvb =4.30%); type: functional
[17] = Induction of cell cycle arrest in mouse BaF3 cells harboring CCDC6-RET assessed as accumulation of cells at G0/G1 phase at 30 nM incubated for 24 hrs by propidium iodide staining based analysis (reference value: 52.51%); type: functional
[18] = Induction of cell cycle arrest in mouse BaF3 cells harboring CCDC6-RET assessed as accumulation of cells at G2/M phase at 100 nM incubated for 24 hrs by propidium iodide staining based analysis (reference value: 34.11%); type: functional
[19] = biological target: Proto-oncogene tyrosine-protein kinase receptor Ret (Homo sapiens, UniProt P07949, V804M); assay: Inhibition of RET (unknown origin) V804M mutant
[20] = Induction of cell cycle arrest in mouse BaF3 cells harboring CCDC6-RET G810R mutant assessed as accumulation of cells at S phase at 100 nM incubated for 24 hrs by propidium iodide staining based analysis (reference value: 13.66%); type: functional

Sequence of Proto-oncogene tyrosine-protein kinase receptor Ret (Homo sapiens, UniProt P07949, G810C) (P07949 29-1114 G810C limits assumed): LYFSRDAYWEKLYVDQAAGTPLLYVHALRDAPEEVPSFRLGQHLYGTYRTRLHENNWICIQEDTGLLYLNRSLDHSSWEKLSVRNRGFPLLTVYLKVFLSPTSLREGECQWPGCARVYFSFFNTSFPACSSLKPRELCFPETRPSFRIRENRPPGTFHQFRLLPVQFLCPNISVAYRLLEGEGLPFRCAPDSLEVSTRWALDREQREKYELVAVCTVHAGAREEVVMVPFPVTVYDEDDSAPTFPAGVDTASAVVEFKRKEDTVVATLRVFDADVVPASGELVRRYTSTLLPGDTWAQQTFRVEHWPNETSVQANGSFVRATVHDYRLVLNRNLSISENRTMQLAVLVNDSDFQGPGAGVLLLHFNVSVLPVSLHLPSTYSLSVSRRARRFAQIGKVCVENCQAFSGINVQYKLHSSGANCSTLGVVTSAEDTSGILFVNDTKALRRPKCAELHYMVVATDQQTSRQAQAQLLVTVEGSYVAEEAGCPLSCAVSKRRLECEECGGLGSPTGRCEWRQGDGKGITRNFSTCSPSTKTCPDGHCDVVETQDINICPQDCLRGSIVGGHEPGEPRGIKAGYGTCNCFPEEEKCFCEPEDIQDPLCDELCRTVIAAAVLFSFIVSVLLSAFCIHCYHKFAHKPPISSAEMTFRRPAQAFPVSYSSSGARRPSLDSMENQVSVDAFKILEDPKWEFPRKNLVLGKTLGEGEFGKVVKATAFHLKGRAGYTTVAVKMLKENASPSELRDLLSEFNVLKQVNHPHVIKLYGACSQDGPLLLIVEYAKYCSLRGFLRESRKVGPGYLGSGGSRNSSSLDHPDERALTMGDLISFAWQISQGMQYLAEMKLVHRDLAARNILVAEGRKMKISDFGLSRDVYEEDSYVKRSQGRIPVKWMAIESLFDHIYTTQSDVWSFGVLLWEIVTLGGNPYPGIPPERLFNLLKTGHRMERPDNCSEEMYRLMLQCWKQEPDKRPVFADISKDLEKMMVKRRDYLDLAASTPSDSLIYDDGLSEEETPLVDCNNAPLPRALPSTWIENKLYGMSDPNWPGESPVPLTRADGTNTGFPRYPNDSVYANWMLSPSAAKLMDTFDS
Sequence of Ephrin type-A receptor 2 (P29317 whole entry): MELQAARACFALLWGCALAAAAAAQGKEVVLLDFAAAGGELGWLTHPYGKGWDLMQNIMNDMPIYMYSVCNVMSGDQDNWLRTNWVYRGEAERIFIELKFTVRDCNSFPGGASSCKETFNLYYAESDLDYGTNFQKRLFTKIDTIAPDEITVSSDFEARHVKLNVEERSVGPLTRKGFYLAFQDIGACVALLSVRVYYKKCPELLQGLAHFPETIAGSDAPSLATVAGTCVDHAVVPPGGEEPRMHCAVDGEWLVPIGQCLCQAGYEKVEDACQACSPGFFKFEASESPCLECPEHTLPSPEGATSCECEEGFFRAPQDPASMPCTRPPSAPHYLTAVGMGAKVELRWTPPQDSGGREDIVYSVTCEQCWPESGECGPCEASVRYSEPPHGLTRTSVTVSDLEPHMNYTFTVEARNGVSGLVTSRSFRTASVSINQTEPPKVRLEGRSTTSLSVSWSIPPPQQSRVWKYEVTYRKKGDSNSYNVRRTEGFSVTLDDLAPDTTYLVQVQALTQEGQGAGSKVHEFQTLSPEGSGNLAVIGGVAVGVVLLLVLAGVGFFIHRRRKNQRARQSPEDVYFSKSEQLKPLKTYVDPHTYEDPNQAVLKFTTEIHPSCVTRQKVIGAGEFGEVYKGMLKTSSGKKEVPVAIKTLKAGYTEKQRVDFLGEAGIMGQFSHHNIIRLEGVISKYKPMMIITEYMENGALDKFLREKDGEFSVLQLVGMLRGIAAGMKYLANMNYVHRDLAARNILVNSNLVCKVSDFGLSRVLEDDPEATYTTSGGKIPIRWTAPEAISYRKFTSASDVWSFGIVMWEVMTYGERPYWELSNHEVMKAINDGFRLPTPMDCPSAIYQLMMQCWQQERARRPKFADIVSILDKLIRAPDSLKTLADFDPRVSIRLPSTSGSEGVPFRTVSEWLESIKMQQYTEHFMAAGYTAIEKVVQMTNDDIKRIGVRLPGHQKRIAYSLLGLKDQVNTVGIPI
Sequence of Proto-oncogene tyrosine-protein kinase receptor Ret (Homo sapiens), P07949 [G810R] (P07949 whole entry G810R): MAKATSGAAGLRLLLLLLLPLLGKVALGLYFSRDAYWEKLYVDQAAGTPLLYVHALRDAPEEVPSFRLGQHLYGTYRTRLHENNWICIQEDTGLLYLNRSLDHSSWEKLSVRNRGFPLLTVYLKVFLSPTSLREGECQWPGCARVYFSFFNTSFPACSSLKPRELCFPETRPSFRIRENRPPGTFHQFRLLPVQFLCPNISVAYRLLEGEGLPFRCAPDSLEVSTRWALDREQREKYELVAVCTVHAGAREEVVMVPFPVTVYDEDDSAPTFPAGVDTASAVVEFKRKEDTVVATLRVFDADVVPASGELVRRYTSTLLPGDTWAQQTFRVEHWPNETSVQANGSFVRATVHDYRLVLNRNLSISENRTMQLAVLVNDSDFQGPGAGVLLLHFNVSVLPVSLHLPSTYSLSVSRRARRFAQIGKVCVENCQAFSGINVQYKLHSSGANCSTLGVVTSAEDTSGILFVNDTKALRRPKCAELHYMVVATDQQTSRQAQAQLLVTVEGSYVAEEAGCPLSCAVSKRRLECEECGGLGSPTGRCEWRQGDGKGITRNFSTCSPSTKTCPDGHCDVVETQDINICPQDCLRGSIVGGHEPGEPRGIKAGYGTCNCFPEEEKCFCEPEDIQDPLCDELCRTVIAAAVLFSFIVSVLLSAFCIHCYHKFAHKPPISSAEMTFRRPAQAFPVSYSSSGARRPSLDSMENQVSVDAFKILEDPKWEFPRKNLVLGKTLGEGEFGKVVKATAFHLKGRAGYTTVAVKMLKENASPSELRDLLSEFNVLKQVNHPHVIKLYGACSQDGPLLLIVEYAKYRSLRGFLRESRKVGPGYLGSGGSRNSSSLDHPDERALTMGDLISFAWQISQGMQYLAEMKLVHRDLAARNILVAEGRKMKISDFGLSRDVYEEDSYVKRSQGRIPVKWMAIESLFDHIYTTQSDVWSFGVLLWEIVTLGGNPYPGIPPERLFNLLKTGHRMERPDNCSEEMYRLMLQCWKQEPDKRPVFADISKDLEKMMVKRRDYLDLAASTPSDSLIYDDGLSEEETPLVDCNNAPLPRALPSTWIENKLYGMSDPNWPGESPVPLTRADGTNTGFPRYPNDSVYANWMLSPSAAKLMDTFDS
Sequence of Proto-oncogene tyrosine-protein kinase receptor Ret (Homo sapiens, UniProt P07949, V804M) (P07949 29-1114 V804M limits assumed): as the sequence (P07949 29-1114 G810C limits assumed) above, with V776M, C782G counted along it
Sequence of Platelet-derived growth factor receptor alpha (P16234 whole entry): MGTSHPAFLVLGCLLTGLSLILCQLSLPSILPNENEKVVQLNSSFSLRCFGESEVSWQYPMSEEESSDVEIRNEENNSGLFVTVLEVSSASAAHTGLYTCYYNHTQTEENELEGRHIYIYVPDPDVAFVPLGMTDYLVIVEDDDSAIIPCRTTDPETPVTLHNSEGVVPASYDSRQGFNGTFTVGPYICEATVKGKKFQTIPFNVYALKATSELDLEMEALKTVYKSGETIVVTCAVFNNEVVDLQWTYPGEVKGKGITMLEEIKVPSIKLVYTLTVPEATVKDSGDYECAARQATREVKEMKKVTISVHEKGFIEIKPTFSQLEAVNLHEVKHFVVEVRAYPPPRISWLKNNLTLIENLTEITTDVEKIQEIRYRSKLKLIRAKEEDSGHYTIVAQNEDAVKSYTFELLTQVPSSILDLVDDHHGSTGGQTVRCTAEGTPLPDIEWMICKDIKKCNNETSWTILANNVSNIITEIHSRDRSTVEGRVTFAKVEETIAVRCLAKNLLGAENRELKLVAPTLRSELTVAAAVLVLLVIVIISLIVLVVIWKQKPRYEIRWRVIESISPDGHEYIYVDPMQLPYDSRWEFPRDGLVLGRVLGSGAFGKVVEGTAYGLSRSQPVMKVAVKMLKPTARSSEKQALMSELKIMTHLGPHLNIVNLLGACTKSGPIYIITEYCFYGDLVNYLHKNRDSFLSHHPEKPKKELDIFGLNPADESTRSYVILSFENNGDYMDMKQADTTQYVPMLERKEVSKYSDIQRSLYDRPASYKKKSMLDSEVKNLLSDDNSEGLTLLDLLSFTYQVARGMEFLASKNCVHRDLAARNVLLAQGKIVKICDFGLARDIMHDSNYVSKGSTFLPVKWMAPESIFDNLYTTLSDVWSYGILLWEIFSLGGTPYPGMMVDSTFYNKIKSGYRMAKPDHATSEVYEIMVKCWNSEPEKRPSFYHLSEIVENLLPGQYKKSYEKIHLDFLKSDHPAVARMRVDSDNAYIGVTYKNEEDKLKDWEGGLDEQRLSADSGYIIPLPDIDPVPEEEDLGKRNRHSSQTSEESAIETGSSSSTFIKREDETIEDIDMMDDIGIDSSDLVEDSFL

Structure (SMILES): COc1cncc(-c2cn[nH]c2/C=C/c2ccc(NC(=O)Nc3cc(C(C)(C)C(F)(F)F)on3)c(Cl)c2)c1
- Activity [1]: 1.39%
- IC50 (BaF3): 25.7 nM
- Activity [2]: 0.47%
- inhibition [3]: 92.9%
- Activity [4]: 12.31%
- Activity [5]: 3.29%
- IC50 (Ephrin type-A receptor 2): 63.4 nM
- inhibition [6]: 74%
- viability at 0.03 µM [7]: 87.4%
- Activity [8]: 2.8%
- Activity [9]: 23.18%
- viability at 0.3 µM [10]: 8.22%
- Activity [11]: 0.07%
- IC50 [12]: 7.1 nM
- viability at 0.03 µM [13]: 86.2%
- IC50 [14]: 17.3 nM
- Activity [15]: 30.23%
- Activity [16]: 3.57%
- Activity [17]: 56.2%
- Activity [18]: 23.17%
- IC50 [19]: 162 nM
- Activity [20]: 12.78%
